Laboratory results taken from paper PMC9127112, “Opening opportunities for Kd determination and screening of MHC peptide complexes” (Communications Biology, 2022).
“And” between values parts separate entries of the source, which are not always exact repeats. Equal entries are not always repeated.

Assays:
[1] = target: empty disulfide-stabilized HLA-A*02:01(Y84C/A139C) complex of heavy chain and beta-2 microglobulin (human); test: nanoscale differential scanning fluorimetry (nDSF, thermal stabilisation)
[2] = target: empty disulfide-stabilized HLA-A*02:01(Y84C/A139C) complex of heavy chain and beta-2 microglobulin (human); test: native MS
[3] = target: T1, dsA2: HLA-A*02:01(Y84C/A139C) disulfide mutant heavy chain / β2m complex (Homo sapiens, UniProt P04439, D140Y/D185E/D98H/E176V/E277Q/G131W/G231S/I119V/I121R/I166T/I218V/L300P/L318F/N151K/N90K/P208A/P217A/Q86G/Q94H/R138H/R169H/T345S/A163C/Y108C); test: native mass spectrometry (nMS) of peptide binding to empty dsA2; settings: cone 150 V, ratio 1:5, raw data, mean of >=3 measurements;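 note: native nano-electrospray MS on Q-Tof II in positive mode, dsA2 at 10 µM with peptide 50–200 µM, incubated ≥10 min on ice, argon collision gas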
T1 construct: made in house; host or cells: Escherichia coli (pET3a)

[4] = target: T1, dsA2: HLA-A*02:01(Y84C/A139C) disulfide mutant heavy chain / β2m complex; test: nanoscale differential scanning fluorimetry (nDSF) thermal stability; format: binding; settings: for Tm: dsA2 2 µM, at least two independent measurements
[5] = target: empty disulfide-stabilized HLA-A*02:01(Y84C/A139C) complex of heavy chain and beta-2 microglobulin (human); test: nanoscale differential scanning f
[6] = target: empty disulfide-stabilized HLA-A*02:01(Y84C/A139C) complex of heavy chain and beta-2 microglobulin (human); test: native MS; remark: listed apart in the source
[7] = target: empty disulfide-stabilized HLA-A*02:01(Y84C/A139C) in complex with beta-2 microglobulin (human); test: isothermal analysis of nanoscale

LV8, NV9 without the N-terminal asparagine (peptide)
∆Tm [1]: 11.6 K
Kd [2]: 0.07 µM

YPNVNIHNF [YF9, reference compound]
AUC dsA2 (empty) ([3]; acceleration voltage 10 V): 56 ± 3% and 56%
AUC dsA2/erucamide ([3]; acceleration voltage 10 V): 39 ± 2% and 39%
AUC dsA2/pep ([3]; acceleration voltage 10 V): 4 ± 2% and 4%
AUC dsA2/pep/pep ([3]; acceleration voltage 10 V): 0%
AUC dsA2 (empty) ([3]; acceleration voltage 25 V): 51%
AUC dsA2/erucamide ([3]; acceleration voltage 25 V): 44%
AUC dsA2/pep ([3]; acceleration voltage 25 V): 5%
AUC dsA2/pep/pep ([3]; acceleration voltage 25 V): 0%
AUC dsA2 (empty) ([3]; acceleration voltage 50 V): 95%
AUC dsA2/erucamide ([3]; acceleration voltage 50 V): 2%
AUC dsA2/pep ([3]; acceleration voltage 50 V): 5%
AUC dsA2/pep/pep ([3]; acceleration voltage 50 V): 0%
Tm ([4]; peptide 0.2 µM): 36.1 °C
Tm ([4]; peptide 2 µM): 36.1 °C
Tm ([4]; peptide 20 µM): 36.2 °C
∆Tm of dsA2 by peptide binding ([4]; protein-peptide ratio 1:10 (dsA2 2 µM), relative to empty dsA2 Tm 35.7 ± 0.6 °C, citrate phosphate buffer pH 7.6, duplicates): 1 ± 1 K

NT8, NV9 without the C-terminal valine (peptide)
Kd [2]: 30 µM

Ac-NV9-NH2, NV9 with an acetylated N-terminus and an amidated C-terminus (peptide)
∆Tm [1]: 2.7 K
Kd [2]: 7 µM

GLGGGGGGV [GV9, simplified NV9 derivative that retains the anchor residues L and V]
other [5]: 6.4 K
other [6]: 43%

GLGGGGGGV [GV9 (…), simplified NV9 derivative that retains the anchor residues L and V]
Kd [7]: 0.36 µM
